Source: article PMC6629088, “Substituted anthraquinones represent a potential scaffold for DNA methyltransferase 1-specific inhibitors” (PLoS ONE, 2019)
Each block holds one compound with its values, some of them ahead of it.

What was measured:
Assay type in all cases: biochemical
[1] = biological target: T1, DNA methyltransferase 1 (RFTS(-) DNMT1) (Homo sapiens, UniProt P26358); experiment: endonuclease-coupled DNA methylation kinetics (Ki); IC50 […]; supported by DSF (+[…] °C), FP DNA competition and detergent test
T1 construct: RFTS(-) DNMT1 (amino acids 621–1616)

DNMT3a = biological target: T2, DNMT3a (Homo sapiens, UniProt Q9Y6K1); experiment: endonuclease-coupled DNA methylation assay, single concentration […] ([…] activity remaining); conditions: read-out: DNMT3a catalytic domain
T2 construct: C-terminal catalytic domain of DNMT3a (amino acids 611–912)

[2] = biological target: T1, DNA methyltransferase 1 (RFTS(-) DNMT1); experiment: endonuclease-coupled DNA methylation assay (IC50); supported by DSF (+[…] °C), FP DNA competition and detergent test

T1 sequence (P26358 621-1616): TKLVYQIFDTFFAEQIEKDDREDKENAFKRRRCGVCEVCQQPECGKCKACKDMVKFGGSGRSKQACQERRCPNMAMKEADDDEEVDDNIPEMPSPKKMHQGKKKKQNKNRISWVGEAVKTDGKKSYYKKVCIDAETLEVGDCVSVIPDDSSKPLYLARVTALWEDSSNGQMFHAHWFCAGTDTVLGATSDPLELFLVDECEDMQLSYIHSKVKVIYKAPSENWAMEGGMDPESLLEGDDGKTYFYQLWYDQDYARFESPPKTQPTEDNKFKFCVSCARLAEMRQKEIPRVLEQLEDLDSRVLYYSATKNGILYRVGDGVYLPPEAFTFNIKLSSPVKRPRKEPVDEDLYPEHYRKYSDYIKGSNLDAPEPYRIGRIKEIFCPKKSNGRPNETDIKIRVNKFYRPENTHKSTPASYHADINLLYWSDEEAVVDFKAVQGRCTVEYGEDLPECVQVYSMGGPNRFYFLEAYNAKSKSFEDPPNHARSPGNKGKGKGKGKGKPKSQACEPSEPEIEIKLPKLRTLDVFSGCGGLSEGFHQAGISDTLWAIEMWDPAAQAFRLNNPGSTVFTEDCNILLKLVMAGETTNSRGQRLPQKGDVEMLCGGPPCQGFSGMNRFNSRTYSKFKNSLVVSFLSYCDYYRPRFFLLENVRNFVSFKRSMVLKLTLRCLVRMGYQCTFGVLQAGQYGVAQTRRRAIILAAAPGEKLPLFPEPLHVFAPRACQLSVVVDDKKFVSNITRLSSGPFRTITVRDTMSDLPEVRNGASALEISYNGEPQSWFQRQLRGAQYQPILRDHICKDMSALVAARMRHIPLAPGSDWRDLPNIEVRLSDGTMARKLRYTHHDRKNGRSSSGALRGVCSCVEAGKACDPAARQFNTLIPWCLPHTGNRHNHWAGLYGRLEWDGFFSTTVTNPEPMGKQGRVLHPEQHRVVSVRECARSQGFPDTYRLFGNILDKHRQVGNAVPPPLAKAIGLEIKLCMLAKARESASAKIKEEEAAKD
T2 sequence (Q9Y6K1 611-912): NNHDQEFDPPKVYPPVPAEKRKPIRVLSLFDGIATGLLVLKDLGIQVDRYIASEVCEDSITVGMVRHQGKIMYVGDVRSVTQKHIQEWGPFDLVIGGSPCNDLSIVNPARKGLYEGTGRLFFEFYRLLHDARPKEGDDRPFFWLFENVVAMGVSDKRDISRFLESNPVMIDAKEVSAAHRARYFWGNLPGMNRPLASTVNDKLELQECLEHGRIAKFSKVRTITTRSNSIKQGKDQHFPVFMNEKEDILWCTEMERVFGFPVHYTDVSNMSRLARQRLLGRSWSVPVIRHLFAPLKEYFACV

Ki [1]: 13 ± 3 µM
SMILES: COc1cc(C(=O)Nc2ccc3c(c2)C(=O)c2ccccc2C3=O)cc(OC)c1OC [A13]

activity at 100 µM (DNMT3a): 32 ± 1%
SMILES: CC(=O)NCCc1ccc(O)c(-c2c(O)c(O)c3c(c2O)C(=O)c2c(cc(O)c(C(=O)O)c2C(=O)O)C3=O)c1 [LCA, laccaic acid A]

IC50 [2]: 59 ± 10 µM
SMILES: Cc1ccc(NC(=O)c2ccc3c(c2O)C(=O)c2ccccc2C3=O)cc1 [A11]
